Source: patent publication US20040006004A1, “Method for prevention and treatment of diseases or disorders related to excessive formation of vascular tissue or blood vessels” (priority 2002, published 2004)

System: NPY Y2 receptor
Experiment: Hyperoxia/ischemia-induced retinal neovascularization (retinopathy) in newborn rats, fluorescent dextran flat-mount vessel count
Type: in vivo, rat (Sprague Dawley)
Details: for Retinal capillary vessel formation in fluorescein images: fluorescence microscopy of flat-mounted retinas, FIG. 3; for Quantitated neovascularization (amount of retinal vessels crossed by a constant length line), Mean ± SD / Quantitated neovascularization, Range: newborn rats, intraperitoneal treatment, retinas at age of 20 days; for Quantitated neovascularization (amount of retinal vessels crossed by a constant length line), Mean ± SD: cyclic hyperoxia 40%/80%; for Quantitated neovascularization, Range: cyclic hyperoxia; for Development of retinopathy: treated groups of rat puppies
Description: The present study was undertaken to determine the impact of NPY Y2 receptor targeted intervention on neovascularization and development of retinopathy. Development of retinopathy was induced to newborn rats by cyclic hyperoxia and following relative ischemia-induced retinal neovascularization. Hyperoxemia is toxic to developing retinal vessels causing damage and hypoxia in the retina. After moving to normal air, relative hypoxia follows further promoting neovascularization of the retina.
Three groups of rat puppies were subjected for different treatments; 1) vehicle, 2) NPY Y2 receptor targeted antisense oligonucleotide sequence, and 3) scramble oligonucleotide sequence containing the same oligonucleotides as NPY Y2 receptor targeted antisense oligonucleotide sequence. The treatments were administered intraperitoneally. The retinal vessels were investigated and retinopathic changes were compared between treatment groups.
Retinopathy was assessed after injection of fluorescent-labelled dextran to the circulation. The eyes were flat-mounted on slides and the retinal vessels were visualized and investigated by fluorescence microscopy. Statistical differences were calculated between the study groups.
Study protocol was approved by the Joint Ethics Committee of Turku University. Development of retinopathy was induced to newborn rats (Sprague Dawley) by cyclic hyperoxia and following relative ischemia. Hyperoxia is toxic to developing retinal vessels causing damage and hypoxia in the retina, which induces neovascularization. After moving to normal air, relative hypoxia follows further promoting neovascularization of the retina. Hypoxia is one of the major causes of retinal neovascularization in human retinopathies also. The newborn rats were kept in a hyperoxic incubator with their mothers. Retinal neovascularization was induced simultaneously for all three groups of puppies. One treatment group consisted originally of 7 puppies, which underwent cyclic hyperoxia at the age of 3 days, continued until at the age of 14 days and remained in normal room air from the age of 14 to 17 days. The amount of oxygen inside the incubator was kept at 40% and 80% in 12 hour cycles for 10 days (days from 3 to 13).
The three groups of puppies were subjected for different treatments; 1) plain vehicle, 2) NPY Y2 receptor targeted antisense oligodeoxynucleotide sequence (5′-CCTCTGCACCTAATGGGCCC-3′ (SEQ ID NO:4), containing 20 thioate modified bases) diluted in vehicle and 3) scramble oligodeoxynucleotide sequence containing the same deoxynucleotides as NPY Y2 receptor targeted antisense oligodeoxynucleotide sequence but in a random order (5′-CCATGGTAATCCGCCGCTCC-3′ (SEQ ID NO:5), containing 20 thioate modified bases) diluted in vehicle. The treatments were administered intraperitoneally. The retinal vessels were investigated and retinopathic changes were compared between treatment groups. The used NPY Y2 receptor targeted antisense deoxynucleotide sequence was designed complementary to next 20 bases from NPY Y2 gene transcription initiation codon (ATG).
At the age of 20 days, rats were decapitated and eyes were collected. Retinopathy and retinal neovascularization was assessed after an injection of fluorescent-labelled dextran to the circulation trough heart puncture. One eye from each puppy was used for visualization of retinal vessels. The eyes were flat-mounted on slides and the retinal vessels were visualized and investigated by fluorescence microscopy. Pictures of retinas were acquired using a Leica DMR/DC 100 microscope and Leica DC Wiever software.
The amount of retinal capillaries was analyzed by counting the amount of vessels crossed by a constant length line using plot profile analysis (Image-J 2.6 program). Each retina was analyzed in 3-5 representative areas and the mean values were used for further statistical analysis. Only unfolded retinal preparations were used in order to avoid artificial images of neovascularization. […]

[1] = post hoc analysis, less neovascularization

Row | Substance | Retinal capillary vessel formation in fluorescein images | Quantitated neovascularization (amount of retinal vessels crossed by a constant length line), Mean ± SD | Quantitated neovascularization, Range | 95% confidence interval for the difference compared to scramble treatment group (post hoc analysis) | 95% confidence interval for the difference compared to vehicle treatment group (post hoc analysis) | Mean difference in neovascularization compared to scramble treatment group [1] | Mean difference in neovascularization compared to vehicle treatment group [1] | Development of retinopathy | Difference in retinal neovascularization versus vehicle treatment group (post hoc analysis)
1 | 5′-CCTCTGCACCTAATGGGCCC-3′ (antisense CCTCTGCACCTAATGGGCCC; DNA, all phosphorothioate, methylation of C not given here) [Y2-antisense, NPY Y2 receptor targeted antisense oligodeoxynucleotide, complementary to rat NPY Y2 mRNA, next 20 bases from initiation codon] | regular and continuous | 24.58 ± 0.84 | 23.75-25.75 | 3.76-9.31 | 2.48-8.33 | 6.53 | 5.40 | prevented | 
2 | 5′-CCATGGTAATCCGCCGCTCC-3′ (CCATGGTAATCCGCCGCTCC; DNA, all phosphorothioate, methylation of C not given here) [Scramble, reference compound] | irregular and disrupted | 31.12 ± 0.93 | 30.33-32.25 |  |  |  |  | evident | no difference
